This is an account of results in PubChem BioAssay (NCI).

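Growth conditions: 96-well plates. Treatment: test compound, 48 hours, 5 concentrations. Analysis: linear interpolation between bracketing concentrations; unreached endpoints set to highest concentration. GI50 marks 50% less growth. TGI: concentration producing complete growth inhibition.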 Where a SMILES comes first, the peptide text is derived from it. The star is where a group is joined. Cbz = O=C(OCc1ccccc1)*; Bn = c1ccc(C*)cc1

Common to all, as to assay: NCI tumour cell line growth inhibition, 48 h
Experiment [1] deals with HOP-18 NSCLC.
For experiment [2], the system named is M19-MEL melanoma.
Experiment [3] relates to P388/ADR leukemia.
Experiment [4] deals with P388 leukemia.
In experiment [5] the test system is SN12K1 renal.
Experiment [6] concerns KM20L2 colon.
For experiment [7], the system named is DMS 114 small cell lung.
Experiment [8] relates to 786-0 renal.
Experiment [9] concerns LXFL 529 NSCLC.
Experiment [10] concerns RXF-631 renal.
In experiment [11] the test system is DU-145 prostate.
Experiment [12] relates to BT-549 breast.
The subject of experiment [13] is T-47D breast.
Experiment [14] concerns HS 578T breast.

For `CC(=O)OCC1OC(NC(=O)N(CCCl)N=O)C(OC(C)=O)C(OC(C)=O)C1OC(C)=O` (stereo not given), the TGI in [1], in experiment [2], in [3], in experiment [4], in experiment [5] and in [6] was above 100 µM throughout. Further, the TGI in experiment [7] is above 100 µM.
As for `NC(=O)c1ccc([N+](=O)[O-])cc1`, the TGI in experiment [8], in experiment [2], in experiment [9], in experiment [10], in experiment [6] and in experiment [7] was above 100 µM in each case.
In the case of `C1CSCCSCSCCS1`, the TGI in experiment [11], in experiment [12], in experiment [13] and in [14] was above 100 µM each time.
As to `O=C1c2cccc(O)c2C(=O)c2c(O)cccc21`, the TGI was above 100 µM in experiment [8]; 24.3 µM in experiment [2]; above 100 µM in [9]; above 100 µM in [6]; above 100 µM in experiment [7].
For `COc1ccc(-c2oc3cc(OC(C)=O)cc(OC(C)=O)c3c(=O)c2OC)cc1`, the TGI in experiment [11] came out at 45.2 µM; in experiment [13], 57.9 µM.
As to `C=CCOCCC(CC=C)C(=O)CC(=O)OC` (stereo not given), the TGI in experiment [1] and in experiment [6] was above 100 µM each time.
Consider `NC(CCP(=O)(O)O)C(=O)O` (stereo not given), for which the TGI in experiment [12], in experiment [8], in experiment [13] and in experiment [14] was above 100 µM in each case.
In the case of `CC1C[C@]2(C[C@@H](C)C(=O)O2)OC2CC3(C)C4CCC5C(C)(C)OC(=O)CC[C@@]56C[C@@]46CC[C@]3(C)C12` (stereo not given in full), the TGI in experiment [1], in experiment [9], in [10] and in [7] was above 100 µM in each case.
Regarding `O=C(Nc1ccc(Cl)cc1)c1cc([N+](=O)[O-])ccc1O`, the TGI in experiment [1] was 7.16 µM; in experiment [8], above 46.8 µM; in experiment [2], 23.5 µM; in experiment [9], 16.8 µM; in experiment [10], above 45.7 µM; in experiment [6], above 50.9 µM. This compound showed a TGI in experiment [7] of 6.75 µM.
Turning to `COC(=O)C(Cc1ccc(O)cc1)NC(=O)C(COCc1ccccc1)NC(=O)OCc1ccccc1` (stereo not given) (Cbz-Ser(Bn)-Tyr-OMe; configuration not given here), the TGI is 31.8 µM in experiment [11], above 100 µM in [12], 39.5 µM in experiment [13] and 53 µM in experiment [14].
Regarding `c1ccc(-c2n(Cc3ccc4ccccc4c3)c3ccccc3[n+]2Cc2ccc3ccccc3c2)cc1`, in experiment [11], the GI50 was 0.441 µM and the TGI amounted to 1.64 µM.
Take `N=C(N)c1ccc(-c2ccc(-c3ccc4ccccc4c3)s2)s1`: the GI50 was 1.83 µM in [11], 17.6 µM in [12], 1.95 µM in [13] and 2.07 µM in [14]. The TGI was 3.44 µM in experiment [11], 46.8 µM in experiment [12], 4.52 µM in experiment [13] and 4.71 µM in experiment [14].
